Assay results taken from patent publication US7674579B2, “Apoptosis-based evaluation of chemosensitivity in cancer patients” (Yale University, priority 2003, dated 2010).

Tests used:
[1] = system: Three established ovarian cancer cell lines and 19 ovarian cancer patient-derived cell samples; assay: Caspase-3 assay, distribution of apoptotic response over 22 cases; assay type: cell-based, human; details: of 22 cases, drugs tested separately
Experimental: Ovarian cancer cell lines HEY (gift from Dr. J M Trent, (26)), A2780 and CP70 (gifts from Dr. T C Hamilton, (27)) were cultured at 37° C. in a 5% CO2 atmosphere. Culture medium varied with the cell line: […] All formulations contained 100 μg/ml streptomycin, 62.5 μg/ml penicillin and 2.5 μg/ml amphotericin. […] For drug treatments, approximately 1×10^5 cells in exponential growth were sub-cultured in a 25 cm^2 flask per treatment. […] With informed consent from 28 patients undergoing routine procedures at Yale-New Haven Hospital 100 to 200 ml of ascites fluid or pelvic washings were obtained. Epithelial cells were collected as previously described (28). Briefly, samples were centrifuged and the cellular pellet was resuspended in Hank's Balanced Salt Solution (HBSS; Gibco Invitrogen, Carlsbad, Calif.). The suspension was centrifuged at 1500 rpm for 10 mins at room temperature. The pellet was then resuspended in HBSS and layered onto LSM lymphocyte separation medium (ICN Biomedicals Inc, Aurora, Ill.) and centrifuged at 2000 rpm for 25 minutes at room temperature. The mononuclear cell-containing layer was collected and incubated with an anti-CD45 mAb conjugated to magnetic beads (Dynal, Oslo, Norway) at 4° C. with rotation for 30 minutes. Following this incubation, the cells were placed into a magnet and the unbound epithelial cells were collected, washed and placed into culture media. […] Remaining cells were cultured in primary culture medium as described above and evaluated for morphological evidence of malignancy by a pathologist. Viable, malignant cells were isolated from 21 of the 28 samples. In agreement with Lounis et al. (29), any fibroblastic cells in the isolated population disappeared after 2 to 3 passages and cells survived on average for 7 to 8 passages. […] Lysates were incubated on ice for 30 min, mixing every 5 min by gentle vortexing. […] Supernatants were frozen and stored at -70° C. Protein concentration was determined by BioRad Protein Assay (BioRad). […] CaspACETM Assay System, Colorimetric). […] Plates were incubated at 37° C. for 4 hr. Absorbance of the cleaved product was read at 405 nm in a Dynatech MR3000 plate reader. Blank values were subtracted and caspase-3 activity was expressed as the absorbance at 405 nm of the cleaved substrate (pNA). Drug treated samples were compared with samples which had not been treated to give a value called relative activity.

[2] = system: invasive ovarian carcinoma; details: of 13 patients
From the text: Patients were monitored for disease recurrence based on physical symptoms, physical examination, CA-125 levels and radiologic imaging. Chemosensitivity is defined as no evidence of disease recurrence, based on the above monitoring, within 6 months of completing the chemotherapy regimen of carboplatin and paclitaxel. Sensitivity of six months is commonly used to define which patients are platinum-sensitive in order to direct second-line therapy (30).

[3] = system: CP70; assay: Clonogenic assay, CP70 cell line; assay type: cell-based, human
Experimental: (§1) Ovarian cancer cell lines HEY (gift from Dr. J M Trent, (26)), A2780 and CP70 (gifts from Dr. T C Hamilton, (27)) were cultured at 37° C. in a 5% CO2 atmosphere. Culture medium varied with the cell line: DME/F12 plus 1% calf serum (HEY); DME/F12 plus 10% FBS, 584 ug/ml L glutamine (A2780 and CP70). All formulations contained 100 μg/ml streptomycin, 62.5 μg/ml penicillin and 2.5 μg/ml amphotericin. Primary cells were cultured in 50% 199 media and 50% MCDB 105 media (Sigma), supplemented with 10% fetal bovine serum (Hyclone, South Logan, Utah), 10 mM HEPES, 0.1 mM MEM non-essential amino acids, 1 mM sodium pyruvate, 100 nM penicili/streptomycin (Gibco) and 4 ng/ml EGF (Sigma). For drug treatments, approximately 1×10^5 cells in exponential growth were sub-cultured in a 25 cm^2 flask per treatment. Carboplatin (Sigma C2538) or paclitaxel (Sigma T7402) was added to the media after the cells reached 60-70% confluence as described in the Results.
Cells were seeded at 600 per 60 mm culture dish and incubated overnight to establish adherence then exposed to varying concentrations of drug for 4 hours. Medium was replaced and incubation was continued for 10-14 days. The cells were washed with 0.9% saline solution then fixed and stained in 72% methanol, 10% formaldehyde, 0.25% crystal violet. Colonies greater than 30 cells were counted. Percent survival was calculated based on the number of colonies in untreated dishes. Each treatment was done at least in duplicate.

[4] = system: A2780 cells; assay: Caspase-3 assay (dose response and time course), A2780 cells; assay type: cell-based, human
Experimental: as §1, with “For drug treatments, approximately 1×10^5 cells in exponential growth were sub-cultured in a 25 cm^2 flask per treatment. Carboplatin (Sigma C2538) or paclitaxel (Sigma T7402) was added to the media after the cells reached 60-70% confluence as described in the Results.” left out
(§2) After drug treatment, cells were lysed and collected in cold 10 mM Tris, pH 7.5, 10 mM Na Phosphate buffer, 130 mM NaCl, 1% Triton X-100, 10 mM Na Pyrophosphate plus freshly added Protease Inhibitor Cocktail (20 μl/ml, Sigma P8340) and 2 MM PMSF. […] Protein concentration was determined by BioRad Protein Assay (BioRad).
(§3) Caspase-3 activity was measured in duplicate from 50 μg cell lysate samples (lysate comprised less than 20% of the total reaction volume)(Promega Corp. CaspACE™ Assay System, Colorimetric). […] Absorbance of the cleaved product was read at 405 nm in a Dynatech MR3000 plate reader. Blank values were subtracted and caspase-3 activity was expressed as the absorbance at 405 nm of the cleaved substrate (pNA). […]

[5] = system: EOC cells RI82S; assay: TUNEL assay, EOC cells R182S; assay type: cell-based, human
Experimental: (§4) To avoid loss of the apoptotic cells, which detach from monolayer culture and are washed away, cells were cultured in suspension above a one ml layer of 1% agarose per well of a 6-well plate. Two ml of cells at 1×10^5/ml growth medium were placed in each well and incubated at 37° C. with 5% CO2. Plates were agitated gently once per day. After drug exposure for 4 hr, the cells were centrifuged, resuspended in fresh medium and returned to the same wells for 48 hr. Cells were centrifuged at 1000 rpm for 10 min, resuspended in 0.5 ml 10% neutral buffered formalin and incubated at room temperature for 10 min. Centrifugation was repeated and cells were resuspended in 80% ethanol. A 25 μl aliquot was pipeted onto a glass slide and dried at room temperature until no moisture was evident. Cells were calorimetrically stained with TUNEL assay reagents (Trevigen) according to the protocol provided by the manufacturer.

[6] = system: EOC cells S 103; assay: TUNEL assay, EOC cells S103; assay type: cell-based, human; details: S 103 cells
Experimental: as §4

[7] = system: CP70 cells; assay: Western blot for activated caspase-3, CP70 cells; assay type: cell-based, human
Experimental: (§5) Cells were treated with drug as described above. Cells were then scraped from the culture vessel, pelleted at 2000 rpm at room temperature and lysed in phosphate buffered saline with 1% NP40, 0.1% sodium dodecyl sulfate. After 20 min on ice, debris was removed by centrifugation at 14,000×g at 4° C.
(§6) Protein concentration was determined and 20 μg samples were denatured in sample buffer (2.5% SDS, 10% glycerol, 5% b-mercaptoethanol, 0.15 M Tris (pH 6.8) and 0.01% broinophenol blue) and subjected to 10 or 12% SDS-PAGE. Proteins were transferred to PVDF membranes (Immobilon, Millipore, Bedford, Mass.) at 100V for 105 min.
(§7) Western blots were performed as previously described (32) (28). Antibodies and concentrations were: rabbit anti-actin (Sigma, 1:10,000), rabbit anti-proform caspase-3 (Santa Cruz, Santa Cruz Calif. 1:1000), rabbit anti-cleaved-caspase-3 (CellSignaling, 1:1000). Antibody binding was determined by enhanced chemiluminescence detection of peroxidase conjugated secondary antibodies (Vector).

[8] = system: EOC R182 cells; assay: Western blot for activated caspase-3, EOC R182 cells; assay type: cell-based, human
Experimental: as §5, §6, §7

[9] = system: A2780 ovarian cancer cells; assay: Western blot for activated caspase-3, A2780 cells; assay type: cell-based, human
Experimental: as §5, §6, §7

[10] = system: HEY; assay: Clonogenic assay, HEY cell line; assay type: cell-based, human
Experimental: as §1
(§8) Cells were seeded at 600 per 60 mm culture dish and incubated overnight to establish adherence then exposed to varying concentrations of drug for 4 hours. Medium was replaced and incubation was continued for 10-14 days. […] Colonies greater than 30 cells were counted. Percent survival was calculated based on the number of colonies in untreated dishes. […]

[11] = system: A2780; assay: Clonogenic assay, A2780 cell line; assay type: cell-based; details: Homo sapiens, clonogenic survival, 4 hours drug exposure, 10-14 days
Experimental: as §1, §8

[12] = system: CP70 cells; assay: Caspase-3 assay (dose response and time course), CP70 cells; assay type: cell-based, human; details: CP70, 0.1 μM, 30 hours treatment
Experimental: as §1, with “For drug treatments, approximately 1×10^5 cells in exponential growth were sub-cultured in a 25 cm^2 flask per treatment. Carboplatin (Sigma C2538) or paclitaxel (Sigma T7402) was added to the media after the cells reached 60-70% confluence as described in the Results.” left out
as §2, §3

For Carboplatin and Paclitaxel, the “Number of Cases Resistant (no increase of caspase-3 activity)” value [1] was 1, the “Number of Cases Sensitive (increased caspase-3 activity relative to untreated samples)” value [1] was 10 and the “number of patients clinically responsive (chemo-sensitive)” value ([2]; no evidence of disease recurrence for 6 months following completion of the regimen) was “seven”. For the same molecule, the “number of patients chemo-resistant” value ([2]; recurrence within 6 months of completing the regimen) was “six”.

In the case of `N.N.O=C([O-])C1(C(=O)[O-])CCC1.[Pt+2]` [Carboplatin], the “resistance of CP70 relative to A2780” value ([3]; clonogenic IC50, CP70 vs A2780) is reported as “about 25 fold”, the caspase-3 activity ([4]; A2780, 24 hour exposure) is reported as “significant caspase-3 activity” and the caspase-3 activity ([4]; A2780, 48 hour treatment, 100 μg/ml) is reported as “Optimal activity”. The “Number of Cases Resistant (no increase of caspase-3 activity)” value [1] was 1, the “Number of Cases Sensitive (increased caspase-3 activity relative to untreated samples)” value [1] was 21 and the “Number of Cases Resistant (no increase of caspase-3 activity)” value ([1]; listed as carboplatin) was “one”. The “percentage of TUNEL-positive cells” value ([5]; 100 μg/ml) was 90%, the “percentage of cells that stain for apoptosis (TUNEL)” value ([6]; 100 μg/ml) was 30.40% and the “expression of the active forms of caspase-3” value (shortened to “expression”) ([7]; CP70, 100 μg/ml for 48 hr) was “No active forms of caspase-3 are present”. For the same molecule, the “expression” value ([8]; EOC R182, 100 μg/ml for 48 hr) was “No active forms of caspase-3 are present” and the “expression” value ([9]; A2780, carboplatin treatment) was “moderate levels”.

In the case of `CC(=O)O[C@H]1C(=O)[C@@]2(C)[C@H]([C@H](OC(=O)c3ccccc3)[C@]3(O)C[C@H](OC(=O)[C@H](O)[C@@H](NC(=O)c4ccccc4)c4ccccc4)C(C)=C1C3(C)C)[C@]1(OC(C)=O)CO[C@@H]1C[C@@H]2O` [Paclitaxel], the “relative response among the three cell lines” value ([3]; CP70 cells, clonogenic assay) is reported as “most sensitive”, the IC50 ([3]; Homo sapiens, CP70, clonogenic survival, 4 hours drug exposure, 10-14 days) is reported as 0.0186 µM and the “relative response among the three cell lines” value ([10]; HEY cells, clonogenic assay) is reported as “most resistant”. The IC50 ([10]; Homo sapiens, HEY, clonogenic survival, 4 hours drug exposure, 10-14 days) was 0.1 µM, the IC50 [11] was 0.0437 µM and the caspase-3 activity [12] was “significant caspase-3 activity”. The “Number of Cases Resistant (no increase of caspase-3 activity)” value [1] was 12, the “Number of Cases Sensitive (increased caspase-3 activity relative to untreated samples)” value [1] was 10 and the “Number of Cases Resistant (no increase of caspase-3 activity)” value ([1]; listed as paclitaxel) was “Twelve”. For the same molecule, the “Number of Cases Sensitive (increased caspase-3 activity relative to untreated samples)” value ([1]; listed as paclitaxel) was “Ten”, the “increase in number of TUNEL-positive cells compared to the untreated controls” value ([5]; 0.1 μM) was 30-40% and the “increase in number of TUNEL-positive cells compared to the untreated controls” value ([6]; 0.1 μM) was 10-20%. The “expression” value ([7]; CP70, 0.1 μM for 30 hr) was “induces the expression of the active forms of caspase-3”, the “expression” value ([8]; EOC R182, 0.1 μM for 30 hr) was “no expression of caspase-3 active forms” and the “expression” value ([9]; A2780, paclitaxel treatment) was “high levels”.
